{"source": "patent US20250351820A1", "about": "“SUPRAMOLECULAR POROUS ORGANIC FRAMEWORKS FOR STORAGE AND DELIVERY OF VOLATILE GUESTS” (KANSAS STATE UNIVERSITY RESEARCH FOUNDATION, priority 2022, published 2025)", "assay_type": "physicochemical", "description": "In one approach, the HOF encapsulated guest was prepared by dissolving trimesic acid and guest in methanol a 1:8 molar ratio. The mixture was stirred at room temperature for up to 48 hours. The solution was then left undisturbed allowing for slow evaporation to take place until crystals were obtained. For particularly oily guest molecules, an additional solvent was required to dissolve trimesic acid. Successful guest uptake was confirmed by single crystal X-ray diffraction (SCXRD). Thermogravimetric analysis was used to monitor the weight loss as a function of temperature, and ^1H NMR was used to confirm the presence of both host and guest in the sample.\nIn order to determine to what extent a particular guest is included within the host structure, we carried out thermal gravimetric analysis (TGA) on the resulting samples. A typical TGA measurement will record the weight-loss as a function of temperature and this will allow us to estimate the relative amount of solvent/guest/host present in a particular sample. […] The host itself begins to thermally degrade at around 250° C.", "data": [{"smiles": "O=C(O)c1cc(C(=O)O)cc(C(=O)O)c1", "note": "[trimesic acid]", "values": [{"measurement": "temperature at which the host begins to thermally degrade", "value": "around 250 °C"}]}]}
